Assay results: PubChem BioAssay AID342 (DTP/NCI, 2004)
“And” between values parts separate entries of the source, which are not always exact repeats. Equal entries are not always repeated.

Tested on: Swiss mice, Sarcoma 180 sc, mean tumor weight T/C
Test: NCI In Vivo Anticancer Drug Screen. Data for tumor model Sarcoma 180 (subcutaneous) in Swiss mice
Conditions: endpoint: mean tumor weight, higher = larger tumour
How it was run: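 Antitumor activity is assessed in mice with transplantable tumors. Treated (T) and vehicle control (C) groups are compared on survival or tumor size.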

C[C@]12CC[C@H](OC3OC(CO)C(O)C(O)C3O)C[C@H]1CC[C@@H]1[C@@H]2CC[C@]2(C)[C@@H](C3=CCOC3=O)CC[C@]12O (stereo partly specified)
T/C (dose: 0.01 mg/kg/injection, schedule: Q01DX007 (ip), vehicle: carboxymethylcellulose (CMC)): 60 % of control
T/C (dose: 0.05 mg/kg/injection, schedule: Q01DX007 (ip), vehicle: carboxymethylcellulose (CMC)): 40 % of control
T/C (dose: 0.12 mg/kg/injection, schedule: Q03DX003 (ip), vehicle: carboxymethylcellulose (CMC)): 81 % of control
T/C (dose: 0.12 mg/kg/injection, schedule: Q#A X014 (ip), vehicle: carboxymethylcellulose (CMC)): 99 % of control
T/C (dose: 0.2 mg/kg/injection, schedule: Q01DX007 (ip), vehicle: carboxymethylcellulose (CMC)): 46 % of control
T/C (dose: 0.25 mg/kg/injection, schedule: Q01DX007 (ip), vehicle: saline): 82 % of control
T/C (dose: 0.25 mg/kg/injection, schedule: Q01DX007 (ip), vehicle: water): 86 % of control
T/C (dose: 0.25 mg/kg/injection, schedule: Q03DX003 (ip), vehicle: carboxymethylcellulose (CMC)): 75 % of control
T/C (dose: 0.25 mg/kg/injection, schedule: Q#A X014 (ip), vehicle: carboxymethylcellulose (CMC)): 57 % of control
T/C (dose: 0.26 mg/kg/injection, schedule: Q01DX007 (ip), vehicle: saline): 49 % of control and 51 % of control
T/C (dose: 0.38 mg/kg/injection, schedule: Q03DX003 (ip), vehicle: carboxymethylcellulose (CMC)): 105 % of control and 108 % of control
T/C (dose: 0.5 mg/kg/injection, schedule: Q01DX007 (ip), vehicle: saline): 55 % of control
T/C (dose: 0.5 mg/kg/injection, schedule: Q01DX007 (ip), vehicle: water): 90 % of control
T/C (dose: 0.5 mg/kg/injection, schedule: Q03DX003 (ip), vehicle: carboxymethylcellulose (CMC)): 92 % of control
T/C (dose: 0.5 mg/kg/injection, schedule: Q#A X014 (ip), vehicle: carboxymethylcellulose (CMC)): 53 % of control
T/C (dose: 0.6 mg/kg/injection, schedule: Q01DX007 (ip), vehicle: saline): 34 % of control and 57 % of control
T/C (dose: 0.8 mg/kg/injection, schedule: Q01DX007 (ip), vehicle: carboxymethylcellulose (CMC)): 27 % of control
T/C (dose: 0.9 mg/kg/injection, schedule: Q01DX007 (ip), vehicle: saline): 47 % of control and 51 % of control
T/C (dose: 0.96 mg/kg/injection, schedule: Q01DX007 (ip), vehicle: saline): 13 % of control
T/C (dose: 1.0 mg/kg/injection, schedule: Q01DX007 (ip), vehicle: carboxymethylcellulose (CMC)): 28 % of control
T/C (dose: 1.0 mg/kg/injection, schedule: Q01DX007 (ip), vehicle: saline): 40 % of control
T/C (dose: 1.0 mg/kg/injection, schedule: Q01DX007 (ip), vehicle: water): 40 % of control
T/C (dose: 1.0 mg/kg/injection, schedule: Q#A X014 (ip), vehicle: carboxymethylcellulose (CMC)): 35 % of control
T/C (dose: 1.3 mg/kg/injection, schedule: Q01DX007 (ip), vehicle: saline): 32 % of control and 38 % of control
T/C (dose: 1.9 mg/kg/injection, schedule: Q01DX007 (ip), vehicle: saline): 13 % of control
T/C (dose: 2.0 mg/kg/injection, schedule: Q01DX007 (ip), vehicle: saline): 22 % of control and 43 % of control
T/C (dose: 10.4 mg/kg/injection, schedule: Q01DX007 (oral), vehicle: carboxymethylcellulose (CMC)): 89 % of control
T/C (dose: 16.0 mg/kg/injection, schedule: Q01DX007 (oral), vehicle: carboxymethylcellulose (CMC)): 95 % of control
T/C (dose: 24.0 mg/kg/injection, schedule: Q01DX007 (oral), vehicle: carboxymethylcellulose (CMC)): 110 % of control
T/C (dose: 36.0 mg/kg/injection, schedule: Q01DX007 (oral), vehicle: carboxymethylcellulose (CMC)): 74 % of control
T/C (dose: 54.0 mg/kg/injection, schedule: Q01DX007 (oral), vehicle: carboxymethylcellulose (CMC)): 101 % of control
T/C (dose: 80.0 mg/kg/injection, schedule: Q01DX007 (oral), vehicle: carboxymethylcellulose (CMC)): 105 % of control
T/C (dose: 81.0 mg/kg/injection, schedule: Q01DX007 (oral), vehicle: carboxymethylcellulose (CMC)): 100 % of control
T/C (dose: 120.0 mg/kg/injection, schedule: Q01DX007 (oral), vehicle: carboxymethylcellulose (CMC)): 91 % of control
T/C (dose: 150.0 mg/kg/injection, schedule: Q01DX007 (oral), vehicle: carboxymethylcellulose (CMC)): 82 % of control
T/C (dose: 160.0 mg/kg/injection, schedule: Q01DX007 (oral), vehicle: carboxymethylcellulose (CMC)): 85 % of control
T/C (dose: 300.0 mg/kg/injection, schedule: Q01DX007 (oral), vehicle: carboxymethylcellulose (CMC)): 97 % of control
T/C (dose: 500.0 mg/kg/injection, schedule: Q01DX007 (oral), vehicle: carboxymethylcellulose (CMC)): 96 % of control
T/C (dose: 15.0 micrograms/kg/injection, schedule: Q01DX007 (ip), vehicle: saline): 73 % of control and 89 % of control
T/C (dose: 120.0 micrograms/kg/injection, schedule: Q01DX007 (ip), vehicle: saline): 65 % of control and 77 % of control
T/C (dose: 125.0 micrograms/kg/injection, schedule: Q01DX007 (ip), vehicle: carboxymethylcellulose (CMC)): 85 % of control and 99 % of control
T/C (dose: 240.0 micrograms/kg/injection, schedule: Q01DX007 (ip), vehicle: saline): 73 % of control and 84 % of control
T/C (dose: 250.0 micrograms/kg/injection, schedule: Q01DX007 (ip), vehicle: carboxymethylcellulose (CMC)): 72 % of control and 79 % of control
T/C (dose: 500.0 micrograms/kg/injection, schedule: Q01DX007 (ip), vehicle: carboxymethylcellulose (CMC)): 47 % of control and 62 % of control
T/C (dose: 960.0 micrograms/kg/injection, schedule: Q01DX007 (ip), vehicle: saline): 33 % of control
T/C (dose: 2000.0 micrograms/kg/injection, schedule: Q01DX007 (ip), vehicle: carboxymethylcellulose (CMC)): 68 % of control
